Reference: patent publication US20200237871A1, “METHODS FOR MITIGATING LIVER INJURY AND PROMOTING LIVER HYPERTROPHY, REGENERATION AND CELL ENGRAFTMENT IN CONJUNCTION WITH RADIATION AND/OR RADIOMIMETIC TREATMENTS” (Janssen Pharmaceutica NV, priority 2019, published 2020)

Legend:
[1] = system: C57BL6 male mice; test: Volume of untreated (non-irradiated) caudate lobe after partial hepatic irradiation (Example 1); format: in vivo, mouse; conditions: 50 Gy to median lobe; 300 μg/kg sc 10 minutes after irradiation; one month after HIR; n=4 per group; p-value <0.00932
Procedure: 8-12-week-old C57BL6 male mice were housed in the Institute for Animal Studies at Albert Einstein College of Medicine and fed regular chow. Animals were weighed in the beginning of the experiment and before tissue collection. All experiments were performed to according to protocols approved by Institutional Animal Care and Use Committee at Albert Einstein College of Medicine.
Image-guided external beam irradiation was performed using a small animal radiation research platform (SARRP, Xstrahl Inc., Suwanee, Ga.). Mice were given gastrografin contrast through gavage to improve visualization of the gastrointestinal (GI) tract. After approximately 2 minutes, mice were positioned on a tubular couch and anesthetized with ˜2% Isofluorane (Isothesia, USP) in 2 L/min pure oxygen. A cone-beam computed tomography (CBCT) scan was acquired and a treatment plan irradiating the median lobe and right lobe was generated using the MuriPlan software. To minimize toxicity, irradiation was performed using 2 parallel opposed fields. […]
With fixed physiologic organ size, non-irradiated liver undergoes hypertrophy in effort to compensate for the irradiated atrophic lobe. The volume of the caudate lobe was measured as a non-irradiated lobe in this experiment.

[2] = system: cirrhotic mice; test: Lobe weight ratio / hypertrophy of non-irradiated lobe in cirrhotic mice after HIR (Example 5); format: in vivo, mouse
Procedure: Male C57BL/6 DPPIV knockout male mice (10-14 weeks) were injected intraperitoneally with carbon tetrachloride (CCl4) twice a week for a minimum of 12 weeks until a maximum of when 5 out of 30 mice perish from the CCl4 injection. Immediately after, the animals were randomly distributed into the experimental groups.
Image-guided external beam irradiation was performed using a small animal radiation research platform (SARRP, Xstrahl Inc., Suwanee, Ga.). Mice were given gastrografin contrast through gavage to improve visualization of the gastrointestinal (GI) tract. […]
The methods were identical to Experiment 4 as described above with the exception that the CCl4 dose was increased to 20% in olive oil over 12 weeks. To evaluate the effect of RWJ-800088+Liver Sinusoidal Endothelial Cells (LSEC), RWJ-800088+Plerixafor (a selective inhibitor of CXCR4 administered pre- and post-irradiation) on radiation induced liver disease as measured by SPECT-CT in cirrhotic mice after single hepatic irradiation (HIR) at 50 Gy. […]
The dosing solution of RWJ-800088 was prepared as described in Experiment 4. […] The number of viral particles and infectious units' ratio was determined by infecting 293 cells at various dilutions, followed by immunocytochemical staining for adenoviral hexons. The infectious titer was calculated from the number of plaques formed per 1,000 viral particles. […]

Q: Which “non-irradiated caudate lobe size, HIR+TPOm vs. HIR+saline” value [1] does the source give for “methoxypolyethyleneglycol20000-propionyl-L-Isoleucyl-L-Glutamyl-Glycyl-L-Prolyl-L-Threonyl-L-Leucyl-L-Arginyl-L-Glutaminyl-L-2-Naphthylalanyl-L-Leucyl-L-Alanyl-L-Alanyl-L-Arginyl-Sarcosyl-Ne-(methoxypolyethyleneglycol20000-propionyl-L-Isoleucyl-L-Glutamyl-Glycyl-L-Prolyl-L-Threonyl-L-Leucyl-L-Arginyl-L-Glutaminyl-L-2-Naphthyl alanyl-L-Leucyl-L-Alanyl-L-Alanyl-L-Arginyl-Sarcosyl-)-Lysinamide [RWJ-800088]” here?
A: Its value is “significant increase”.

Q: What about the “Average Ratio of Right Lobe to Left Lobe Weight” value ([2]; HIR + LSEC transplant (48 hours after HIR) + drug, 4 months post-HIR) of the same substance?
A: The value was 1.35.

Q: And the “hypertrophy of the non-irradiated lobe” value ([2]; cirrhotic mice, 50 Gy HIR, RWJ-800088 with LSEC transplants)?
A: Its value is “increase in hypertrophy”.
